Results published in US10183015B2, “Heterocyclic compounds and methods of use” (Medivation Technologies LLC, priority 2015, dated 2019).
Values joined by “and” are separate entries in the source; they are usually repeats but may differ in a detail not shown here. Equal values may be shown once.

Assays:
Type in all cases: in vivo
[1] = tested on: diet-induced NASH obese insulin resistant mice; experiment: DIN mouse model: plasma lipid levels; conditions: 20 mg/kg, end of treatment
Protocol: (§1) Male C57Bl/6J mice (8 weeks old) were housed in enriched ventilated cages (31×12.5×12.7 cm) throughout the experimental phase. Animals' cages litters were changed at least once a week. Animal were housed 5 per cage on inverted 12-hour light cycle (at 09:00 am lights off), 22±2° C. and 55±10% relative humidity. The acclimation period was 20 days. During the acclimation period, all mice were fed a standard diet (RM1 (E) 801492, SDS) and tap water ad libitum. After the acclimation period, mice were fed with the DIN diet (60% fat, cholesterol enriched) and fructose-enriched tap water ad libitum until the end of the experiment.
(§2) At 6 weeks of diet, mice were 4-hour fasted (09:00 am to 1:00 pm) and blood (150 μl/EDTA) was collected at 01:00 pm by retro-orbital bleeding under isoflurane anesthesia. Mice were then allocated in 2 homogenous groups (n=12/group) according to their plasma levels of ALT (average levels: 685U/L), AST (average levels: 627U/L) and HOMA-IR index (average value: 4.7), into 2 homogenous groups (see values at day 0 in Tables 15A and 15B ALT/AST and Tables 16A and 16B for HOMA-IR). Mice were then treated once daily by oral gavage with vehicle (Group 1) or Compound #37 at 20 mg/kg (Group 2) for 70 days.
To investigate whether Compound #37 improves pre-existing steatosis/NASH pathology, a study was conducted using a 16-week diet-induced NASH mouse model. In this model, mice develop steatosis that progresses with inflammation and fibrosis that mimic many of the observed pathologies in human nonalcoholic fatty liver disease (NAFLD) and NASH (Hebbard & George, 2010). For 6 weeks, mice were fed a high-fat, high-cholesterol diet and provided drinking water containing fructose to induce liver pathology (Charlton et al, 2011). After 6 weeks, the mice were divided into 2 groups with similar mean aspartate aminotransferase (AST) and alanine aminotransferase (ALT) values (n=12 mice), although it should be noted that AST and ALT concentrations within both groups were higher and with greater variability than anticipated (e.g., mean ALT 677 U/L [SD, 401 U/L] in the vehicle control group and 693 U/L [SD, 365 U/L] in the Compound #37 group). After the animals were divided into 2 groups, the diet was continued for 10 additional weeks during which time 1 group received vehicle and the other was treated with 20 mg/kg/day Compound #37.

NRF2 = experiment: DIN mouse model: hepatic NRF2 gene expression; conditions: liver, 20 mg/kg group
Protocol: (§3) Gene expression analysis. Hepatic expression levels of genes involved in lipid metabolism (FAS, SREBP1, ACC1, SCD1), cholesterol metabolism (HMG-CoAR, LDLR), SREBP proteolysis (SCAP, INSIG1), ER stress (PERK), oxidative stress (NRF2), inflammation (MCP-1), and fibrosis (collagen 1α1) were quantified by RTqPCR. Expression level was normalized to 18S gene expression and relative expression to vehicle group was calculated with the […] method.
as §1, §2
(§4) Hepatic expression levels of genes involved in lipid (FAS, SREBP1, ACC1, SCD1), cholesterol metabolism (HMG-CoAR, LDLR), in SREBP proteolysis (SCAP, INSIG1), in ER stress (PERK), oxidative stress (NRF2), and inflammation (MCP-1) were not changed. However, expression of collagen 1α1, involved in liver fibrosis, was reduced by 66% in mice treated with Compound #37 (p<0.05 vs. vehicle).

LDLR = experiment: DIN mouse model: hepatic LDLR gene expression; design: key to LDLR 2^DDct: expression relative to vehicle group, normalized to 18S; conditions: liver, 20 mg/kg group
Protocol: as §3, §1, §2, §4

[2] = individual animals, normalised to 18S, 20 mg/kg
[3] = individual animals, vs vehicle mean, 20 mg/kg

## CC(C)Cc1cc(-c2nc(-c3ccc(NS(=O)(=O)C(F)(F)F)cc3Cl)cs2)ccn1 [Compound 37, N-(3-chloro-4-(2-(2-isobutylpyridin-4-yl)thiazol-4-yl)phenyl)-1,1,1-trifluoromethanesulfonamide]
[1]; p<0.05 vs. vehicle
  HDL-cholesterol increase: 31%
[1]; group mean, n 11
  plasma HDL cholesterol: 1.42 g/L
  plasma cholesterol: 1.82 g/L
  plasma free fatty acids: 0.59 mM
  plasma triglycerides: 0.40 g/L
[1]; individual animals
  plasma HDL cholesterol: 1.65 g/L and 1.68 g/L and 1.10 g/L and 1.47 g/L (2×) and 1.90 g/L and 1.12 g/L and 1.43 g/L and 0.62 g/L and 1.62 g/L and 1.56 g/L
  plasma cholesterol: 2.49 g/L and 2.36 g/L and 1.95 g/L and 1.67 g/L and 2.12 g/L and 1.38 g/L and 1.62 g/L and 1.15 g/L and 1.57 g/L and 1.86 g/L and 1.90 g/L
  plasma free fatty acids: 0.73 mM and 0.63 mM and 0.59 mM (3×) and 0.29 mM and 0.65 mM and 0.56 mM and 0.71 mM and 0.44 mM and 0.67 mM
  plasma triglycerides: 0.37 g/L (2×) and 0.3 g/L and 0.42 g/L and 0.35 g/L and 0.40 g/L and 0.34 g/L and 0.45 g/L and 0.50 g/L and 0.47 g/L and 0.39 g/L
NRF2; [2]
  NRF2 Dct: 10.62 and 10.7 and 12.57 and 11.27 and 11.31 and 10.88 and 11.1 and 10.74 and 12.23 and 11.89 and 9.9
NRF2; [3]
  NRF2 2^DDct: 1.34 and 1.27 and 0.35 and 0.85 and 0.83 and 1.12 and 0.96 and 1.23 and 0.44 and 0.56 and 2.21
  NRF2 DDct: −0.42 and −0.34 and 1.53 and 0.23 and 0.27 and −0.16 and 0.06 and −0.3 and 1.19 and 0.85 and −1.14
NRF2; individual animals, 20 mg/kg
  NRF2 (Ct): 23.17 and 23.25 (2×) and 25.41 and 23.7 and 23.66 and 23.47 and 22.83 and 23.73 and 23.44 and 22.25
NRF2; mean, n 11
  NRF2 2^DDct: 1.01
  NRF2 (Ct): 23.5
  NRF2 DDct: 0.16
  NRF2 Dct: 11.2
LDLR; [2]
  LDLR Dct: 12.37 and 11.75 and 14.3 and 12.94 and 13.5 and 12.33 and 12.03 and 12.22 and 12.97 and 13.44 and 11.28
LDLR; [3]
  LDLR 2^DDct: 1.65 and 2.54 and 0.43 and 1.11 and 0.76 and 1.7 and 2.09 and 1.84 and 1.09 and 0.79 and 3.52
  LDLR DDct: −0.73 and −1.35 and 1.2 and −0.16 and 0.4 and −0.77 and −1.07 and −0.88 and −0.13 and 0.34 and −1.82
LDLR; individual animals, 20 mg/kg
  LDLR (Ct): 24.92 (2×) and 24.3 and 27.14 and 25.37 and 25.85 and 23.76 and 24.73 and 24.47 and 24.99 and 23.63
LDLR; mean, n 11
  LDLR 2^DDct: 1.59
  LDLR (Ct): 24.9
  LDLR DDct: −0.45
  LDLR Dct: 12.6
